Measurements: article PMC10175918 (Communications Biology, 2023)
Like-named read-outs stand apart in the source and are kept apart here.

Key:
Test in all cases: TGFα-shedding assay-based GPCR screening with chimeric Gα subunit proteins
Type in all cases: cell-based
348 GPCRs [1] = biological target: T1, 348 GPCRs (Homo sapiens, UniProt Q9ULV1); details: 10µM, Favipiravir 100μM
T1 construct: expressed in transfected cells; host or cells: HEK293A
T1 sequence (Q9ULV1 37-537): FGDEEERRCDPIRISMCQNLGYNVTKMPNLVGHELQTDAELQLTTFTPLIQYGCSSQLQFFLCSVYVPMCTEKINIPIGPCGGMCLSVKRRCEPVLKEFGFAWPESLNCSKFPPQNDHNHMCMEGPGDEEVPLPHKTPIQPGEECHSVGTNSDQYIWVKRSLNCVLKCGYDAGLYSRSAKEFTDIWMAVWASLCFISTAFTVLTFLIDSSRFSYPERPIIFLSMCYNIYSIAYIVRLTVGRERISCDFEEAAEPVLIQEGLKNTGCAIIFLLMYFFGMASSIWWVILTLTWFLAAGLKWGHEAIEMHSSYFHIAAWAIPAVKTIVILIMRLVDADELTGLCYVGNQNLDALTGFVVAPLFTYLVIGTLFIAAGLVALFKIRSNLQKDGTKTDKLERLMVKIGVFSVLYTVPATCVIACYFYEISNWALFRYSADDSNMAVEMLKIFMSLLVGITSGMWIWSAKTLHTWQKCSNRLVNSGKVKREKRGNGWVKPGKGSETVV

348 GPCRs [2] = biological target: T2, 348 GPCRs (Homo sapiens, UniProt Q8IZF7)
T2 construct: expressed in transfected cells; host or cells: HEK293A
T2 sequence (Q8IZF7 1-708): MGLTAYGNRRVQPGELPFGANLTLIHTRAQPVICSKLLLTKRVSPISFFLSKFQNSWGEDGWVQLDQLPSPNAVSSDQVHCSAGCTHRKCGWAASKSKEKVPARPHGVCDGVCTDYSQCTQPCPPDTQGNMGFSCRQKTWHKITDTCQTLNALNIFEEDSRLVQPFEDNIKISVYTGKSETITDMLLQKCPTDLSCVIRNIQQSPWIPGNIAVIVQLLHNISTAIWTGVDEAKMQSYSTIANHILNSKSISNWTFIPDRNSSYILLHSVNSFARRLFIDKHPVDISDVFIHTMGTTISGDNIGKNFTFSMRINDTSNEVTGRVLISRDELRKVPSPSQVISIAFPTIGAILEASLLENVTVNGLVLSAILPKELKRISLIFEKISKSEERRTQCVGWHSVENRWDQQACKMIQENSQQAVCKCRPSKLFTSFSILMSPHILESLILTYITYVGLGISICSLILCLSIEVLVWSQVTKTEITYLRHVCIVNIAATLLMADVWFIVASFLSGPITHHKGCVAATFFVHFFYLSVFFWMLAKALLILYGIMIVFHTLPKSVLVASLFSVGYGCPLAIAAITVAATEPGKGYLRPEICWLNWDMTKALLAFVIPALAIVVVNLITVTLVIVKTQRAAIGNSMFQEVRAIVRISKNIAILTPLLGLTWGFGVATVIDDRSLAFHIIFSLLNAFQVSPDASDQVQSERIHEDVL

348 GPCRs [3] = biological target: T3, 348 GPCRs (Homo sapiens, UniProt P49146); details: 10µM, Favipiravir 100μM
T3 construct: expressed in transfected cells; host or cells: HEK293A
T3 sequence (P49146 1-381): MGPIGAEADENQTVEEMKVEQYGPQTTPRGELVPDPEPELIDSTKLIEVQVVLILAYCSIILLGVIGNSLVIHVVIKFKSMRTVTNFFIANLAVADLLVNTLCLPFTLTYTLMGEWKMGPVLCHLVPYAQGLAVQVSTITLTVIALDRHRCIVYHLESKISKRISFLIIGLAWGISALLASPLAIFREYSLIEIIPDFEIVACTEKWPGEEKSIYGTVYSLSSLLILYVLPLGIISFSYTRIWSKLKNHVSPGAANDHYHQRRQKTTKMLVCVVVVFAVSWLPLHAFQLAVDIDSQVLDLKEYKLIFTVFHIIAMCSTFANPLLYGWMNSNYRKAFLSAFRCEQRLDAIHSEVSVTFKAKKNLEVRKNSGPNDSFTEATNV

348 GPCRs [4] = biological target: T4, 348 GPCRs (Homo sapiens, UniProt P34972); details: 10µM, Favipiravir 100μM
T4 construct: expressed in transfected cells; host or cells: HEK293A
T4 sequence (P34972 whole entry): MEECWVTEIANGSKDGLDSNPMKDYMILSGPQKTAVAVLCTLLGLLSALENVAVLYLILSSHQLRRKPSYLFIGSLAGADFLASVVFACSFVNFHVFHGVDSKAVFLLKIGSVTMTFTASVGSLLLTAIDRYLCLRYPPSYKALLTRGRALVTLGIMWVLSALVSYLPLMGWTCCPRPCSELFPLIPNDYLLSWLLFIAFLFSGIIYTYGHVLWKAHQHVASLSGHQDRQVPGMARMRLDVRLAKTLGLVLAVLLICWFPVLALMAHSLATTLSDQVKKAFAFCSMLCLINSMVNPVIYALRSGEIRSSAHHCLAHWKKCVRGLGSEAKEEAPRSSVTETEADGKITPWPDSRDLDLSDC

348 GPCRs [5] = biological target: T5, 348 GPCRs (Homo sapiens, UniProt P49019); details: 10µM, Favipiravir 100μM
T5 construct: expressed in transfected cells; host or cells: HEK293A
T5 sequence (P49019 whole entry): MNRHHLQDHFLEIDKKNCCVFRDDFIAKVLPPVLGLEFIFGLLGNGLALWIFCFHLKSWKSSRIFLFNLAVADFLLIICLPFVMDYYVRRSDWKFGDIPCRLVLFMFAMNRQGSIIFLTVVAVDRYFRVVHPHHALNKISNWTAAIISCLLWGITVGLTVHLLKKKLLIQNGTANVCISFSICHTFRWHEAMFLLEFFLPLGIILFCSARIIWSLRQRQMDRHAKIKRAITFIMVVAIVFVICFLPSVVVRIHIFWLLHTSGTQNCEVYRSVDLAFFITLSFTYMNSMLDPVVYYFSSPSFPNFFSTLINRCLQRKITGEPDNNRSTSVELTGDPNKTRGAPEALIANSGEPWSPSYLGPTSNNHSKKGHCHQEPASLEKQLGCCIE

348 GPCRs [6] = biological target: T6, 348 GPCRs (Homo sapiens, UniProt P32238); details: 10µM, Favipiravir 100μM
T6 sequence (P32238 1-428): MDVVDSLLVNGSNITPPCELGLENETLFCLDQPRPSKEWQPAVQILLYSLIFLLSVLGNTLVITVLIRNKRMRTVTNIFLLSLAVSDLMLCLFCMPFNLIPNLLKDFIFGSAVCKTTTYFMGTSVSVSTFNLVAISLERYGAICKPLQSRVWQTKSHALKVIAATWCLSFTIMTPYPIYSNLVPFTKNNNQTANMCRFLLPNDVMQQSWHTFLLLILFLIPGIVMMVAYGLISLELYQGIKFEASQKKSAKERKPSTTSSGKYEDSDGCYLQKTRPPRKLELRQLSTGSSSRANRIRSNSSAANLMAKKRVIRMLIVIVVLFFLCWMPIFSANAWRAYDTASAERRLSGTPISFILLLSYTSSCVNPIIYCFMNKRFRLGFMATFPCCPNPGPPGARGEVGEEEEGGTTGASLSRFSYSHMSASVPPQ

348 GPCRs [7] = biological target: T7, 348 GPCRs (Homo sapiens, UniProt P47804); details: 10µM, Favipiravir 100μM
T7 construct: expressed in transfected cells; host or cells: HEK293A
T7 sequence (P47804 1-291): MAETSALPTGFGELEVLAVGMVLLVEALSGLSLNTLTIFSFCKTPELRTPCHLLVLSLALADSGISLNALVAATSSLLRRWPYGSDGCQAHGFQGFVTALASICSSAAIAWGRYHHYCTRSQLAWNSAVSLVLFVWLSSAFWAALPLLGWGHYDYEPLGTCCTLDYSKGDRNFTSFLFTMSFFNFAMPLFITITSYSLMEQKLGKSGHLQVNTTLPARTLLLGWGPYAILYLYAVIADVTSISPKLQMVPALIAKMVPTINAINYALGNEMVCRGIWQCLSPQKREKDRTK

[8] = read-out: % GPCR activation compared to TPA, FZD4 (frizzled family receptor 4)
[9] = read-out: % GPCR activation compared to TPA, GPCR GPR111 (G-protein-coupled receptor 111 (ADGRF2))
[10] = read-out: % GPCR activation compared to TPA, NPY2R (neuropeptide Y receptor Y2)
[11] = read-out: % GPCR activation compared to TPA, CB2 (cannabinoid receptor 2)
[12] = read-out: % GPCR activation compared to TPA, HCA3 (hydroxycarboxylic Acid Receptor 3)
[13] = read-out: % GPCR activation compared to TPA, CCKAR (cholecystokinin A receptor)
[14] = read-out: % GPCR activation compared to TPA, RGR (Retinal G protein coupled receptor)
[15] = FZD4 (frizzled family receptor 4), read-out: % GPCR activation compared to TPA
[16] = GPCR GPR111 (G-protein-coupled receptor 111 (ADGRF2)), read-out: % GPCR activation compared to TPA
[17] = NPY2R (neuropeptide Y receptor Y2), read-out: % GPCR activation compared to TPA
[18] = CB2 (cannabinoid receptor 2), read-out: % GPCR activation compared to TPA
[19] = HCA3 (hydroxycarboxylic Acid Receptor 3), read-out: % GPCR activation compared to TPA
[20] = CCKAR (cholecystokinin A receptor), read-out: % GPCR activation compared to TPA
[21] = RGR (Retinal G protein coupled receptor), read-out: % GPCR activation compared to TPA

Structure (SMILES)	activation at 100 µM (348 GPCRs [1]; [8])	activation at 10 µM (348 GPCRs [2]; [9])	activation at 100 µM (348 GPCRs [3]; [10])	activation at 100 µM (348 GPCRs [4]; [11])	activation at 100 µM (348 GPCRs [5]; [12])	activation at 100 µM (348 GPCRs [6]; [13])	activation at 100 µM (348 GPCRs [7]; [14])	activation at 100 µM (348 GPCRs [1]; [15])	activation at 10 µM (348 GPCRs [2]; [16])	activation at 100 µM (348 GPCRs [3]; [17])	activation at 100 µM (348 GPCRs [4]; [18])	activation at 100 µM (348 GPCRs [5]; [19])	activation at 100 µM (348 GPCRs [6]; [20])	activation at 100 µM (348 GPCRs [7]; [21])	activation at 100 µM (348 GPCRs [2]; GPCR GPR111 (G-protein-coupled receptor 111 (ADGRF2)), 100μM, read-out: % GPCR activation compared to TPA)
CC(C)OC(=O)[C@H](C)N[P@](=O)(OC[C@H]1O[C@@H](n2ccc(=O)[nH]c2=O)[C@](C)(F)[C@@H]1O)Oc1ccccc1 [sofosbuvir]	-0.222%	-0.382%	-5.23%	-2.78%	-2.7%	-1.34%	-3.06%	–	–	–	–	–	–	–	–
CC(C)C(=O)OC[C@H]1O[C@@H](n2ccc(NO)nc2=O)[C@H](O)[C@@H]1O [molnupiravir]	–	–	–	–	–	–	–	1.08%	0.307%	-4.76%	-1.91%	-2.64%	2.71%	-1.3%	–
NC(=O)c1nc(F)cnc1O [favipiravir, 6-fluoro-3-hydroxy-2-pyrazinecarboxamide]	–	–	–	–	–	–	–	0.755%	–	-0.896%	1.24%	0.282%	-0.523%	-1.43%	-1.94%
N#C[C@@]1(c2ccc3c(N)ncnn23)O[C@H](CO)[C@@H](O)[C@H]1O [GS441524]	–	–	–	–	–	–	–	4.3%	-2.52%	0.462%	-0.772%	-0.178%	-2.84%	-2.11%	–
CCC(CC)COC(=O)[C@H](C)N[P@](=O)(OC[C@H]1O[C@@](C#N)(c2ccc3c(N)ncnn23)[C@H](O)[C@@H]1O)Oc1ccccc1 [remdesivir]	3.99%	-1.09%	1.07%	-0.086%	-1.75%	1.15%	-0.554%	–	–	–	–	–	–	–	–
